For assay [1], the target named is wild-type human cardiac sodium channel, hNaV 1.5 (Peak INa) (Homo sapiens, UniProt Q14524). The assay is described as follows: Peak INa screening assay (tonic block and use-dependent block). Format: cell-based. As for the experimental part:
The assay uses an HEK293 (human embryonic kidney) cell line heterologously expressing the wild-type human cardiac sodium channel, hNaV 1.5, purchased from Millipore (Billerica, Mass.). No beta subunits were coexpressed with the Na channel alpha subunit. Cells are maintained with standard tissue culture procedures and stable channel expression is maintained with 400 μg/mL Geneticin in the culture medium. […] Currents are digitized at 25 kHz and low-pass filtered at 5 kHz and stored in the Sophion Bioscience Oracle database (Sophion Bioscience, Copenhagen, Denmark). Analysis is performed using QPatch Assay software and data are compiled in Excel 2010 (Microsoft, Seattle, Wash., U.S.A.). Compound stocks are routinely made by the Gilead Sample Bank in vials to 10 mM in dimethyl sulfoxide (DMSO). In some cases, when compounds are not soluble in DMSO, they are made in 100% ethanol. Stocks are sonicated as necessary. The extracellular solution for screening Late INa is composed of: 140 mM NaCl, 4 mM KCl, 1.8 mM CaCl2, 1 mM MgCl2, 10 mM HEPES and 10 mM Dextrose with pH adjusted to 7.35 using NaOH. The intracellular solution contains: 105 mM CsF, 20 mM CsCl, 10 NaF, 2 mM EGTA, 10 mM HEPES and 10 mM Dextrose with pH adjusted to 7.35 with CsOH. Compounds are diluted in extracellular solution using a MicroLab Nimbus (Hamilton Robotics, Reno, Nev.) to between 0.3 and 3 μM in glass vials and transferred to glass well plates before robotic addition to the cells. […] It is contemplated that the compounds of Formula I avoid significant block of peak INa. […] The intracellular solution used for the Peak INa assay is the same as outlined for the Late INa assay (see above). After establishing the whole cell recording configuration, channels were stimulated to open with low frequency (0.1 Hz) for so that the recording can be monitored and the extent to which the recording has stabilized can be assessed. The test compound is then applied at 1 or 3 μM was added 2 times at 60 second intervals. After the second compound addition, a 200 second wait period was imposed to allow for equilibration. Voltage protocols for TB and UDB are were performed in the absence and presence of compound and TB and UDB are calculated with respect to the compound free condition. Both TB and UDB were analyzed by incorporating rundown correction for the peak INa.

Assay [2] addresses wild-type human cardiac sodium channel, hNaV 1.5 (Late INa) (Homo sapiens, UniProt Q14524). Kind of assay: Late INa screening assay (whole cell patch clamp, QPatch, Tefluthrin-induced late current). The class given is cell-based. As to conditions: HEK293 hNaV1.5, 10 μM Tefluthrin; for inhibition at 1 µM: HEK293, % inhibition (percent block of late INa) at 1 uM, read-out: Nav1.5 Late INa 1 uM. As for the experimental part: The cardiac late sodium current (Late INa) and peak sodium current (Peak INa) assays are performed on an automated electrophysiology platform, QPatch 16X or QPatch HT (Sophion Bioscience, Copenhagen, Denmark) using the whole cell patch clamp technique to measure currents through the cell membrane. The assay uses an HEK293 (human embryonic kidney) cell line heterologously expressing the wild-type human cardiac sodium channel, hNaV 1.5, purchased from Millipore (Billerica, Mass.). No beta subunits were coexpressed with the Na channel alpha subunit. Cells are maintained with standard tissue culture procedures and stable channel expression is maintained with 400 μg/mL Geneticin in the culture medium. Experiments are carried out at 23-25° C.
For both the Late INa and Peak INa assays, series resistance compensation is set to 100% and series resistance and whole-cell compensation are performed automatically. Currents are digitized at 25 kHz and low-pass filtered at 5 kHz and stored in the Sophion Bioscience Oracle database (Sophion Bioscience, Copenhagen, Denmark). Analysis is performed using QPatch Assay software and data are compiled in Excel 2010 (Microsoft, Seattle, Wash., U.S.A.).
Compound stocks are routinely made by the Gilead Sample Bank in vials to 10 mM in dimethyl sulfoxide (DMSO). In some cases, when compounds are not soluble in DMSO, they are made in 100% ethanol. Stocks are sonicated as necessary. The extracellular solution for screening Late INa is composed of: 140 mM NaCl, 4 mM KCl, 1.8 mM CaCl2, 1 mM MgCl2, 10 mM HEPES and 10 mM Dextrose with pH adjusted to 7.35 using NaOH. The intracellular solution contains: 105 mM CsF, 20 mM CsCl, 10 NaF, 2 mM EGTA, 10 mM HEPES and 10 mM Dextrose with pH adjusted to 7.35 with CsOH. Compounds are diluted in extracellular solution using a MicroLab Nimbus (Hamilton Robotics, Reno, Nev.) to between 0.3 and 3 μM in glass vials and transferred to glass well plates before robotic addition to the cells. The 0 mM Na extracellular solution (0Na-ECF) used at the end of each experiment for the Late INa and Peak INa assays to measure baseline current contains: 140 Choline-Cl; 4 mM KCl, 1.8 mM CaCl2; 1 mM MgCl2; 10 mM HEPES and 10 mM Dextrose with pH was adjusted to 7.35 with CsOH.
For the Late INa assay, sodium channels are activated every 10 seconds (0.1 Hz) by depolarizing the cell membrane to −20 mV for 250 milliseconds (ms) from a holding potential of −120 mV.
Compounds were tested to determine their activity in blocking the late sodium current. Late INa was generated by adding 10 μM Tefluthrin (pyrethroid) to the extracellular solution. For the purposes of the screening, Late INa is defined as the mean current between 240 ms and 265 ms during the voltage step to −20 mV. After establishing the whole cell recording configuration, Late INa activator is added to each well 4 times over a 15 minute period so that the late component of the Na current reaches a stable value. Compounds were then added (typically at 0.3 or 1 μM), in the presence of the Late INa activator, with 3 additions over the course of 5 minutes. Measurements were made at the end of exposure to the third compound addition and values were normalized to the current level when all Na^+ was removed from the extracellular solution after two additions of 0Na-ECF.
Results are reported as percent block of late INa and results were analyzed by incorporating rundown correction for the Late INa.
(In general: The patch-clamp technique gives a direct electrical read-out from membranes.)

Where [3] appears, read: % inhibition, use-dependent block of peak INa at 3 uM, 3 Hz, pulse 50, read-out: Nav1.5 Peak UDB 3 Hz 3 uM.
Where [4] appears, read: read-out: Nav1.5 Peak TB 3 uM, % inhibition, tonic block of peak INa at 3 uM, 0.1 Hz, holding -100 mV.

The source of these data is patent US9416128B2, “Fused heterocyclic compounds as ion channel modulators” (Gilead Sciences, Inc., priority 2013, dated 2016).

Where two headings read alike, the source gives them in different places.

Chain of wild-type human cardiac sodium channel, hNaV 1.5 (Late INa) (Q14524 whole entry): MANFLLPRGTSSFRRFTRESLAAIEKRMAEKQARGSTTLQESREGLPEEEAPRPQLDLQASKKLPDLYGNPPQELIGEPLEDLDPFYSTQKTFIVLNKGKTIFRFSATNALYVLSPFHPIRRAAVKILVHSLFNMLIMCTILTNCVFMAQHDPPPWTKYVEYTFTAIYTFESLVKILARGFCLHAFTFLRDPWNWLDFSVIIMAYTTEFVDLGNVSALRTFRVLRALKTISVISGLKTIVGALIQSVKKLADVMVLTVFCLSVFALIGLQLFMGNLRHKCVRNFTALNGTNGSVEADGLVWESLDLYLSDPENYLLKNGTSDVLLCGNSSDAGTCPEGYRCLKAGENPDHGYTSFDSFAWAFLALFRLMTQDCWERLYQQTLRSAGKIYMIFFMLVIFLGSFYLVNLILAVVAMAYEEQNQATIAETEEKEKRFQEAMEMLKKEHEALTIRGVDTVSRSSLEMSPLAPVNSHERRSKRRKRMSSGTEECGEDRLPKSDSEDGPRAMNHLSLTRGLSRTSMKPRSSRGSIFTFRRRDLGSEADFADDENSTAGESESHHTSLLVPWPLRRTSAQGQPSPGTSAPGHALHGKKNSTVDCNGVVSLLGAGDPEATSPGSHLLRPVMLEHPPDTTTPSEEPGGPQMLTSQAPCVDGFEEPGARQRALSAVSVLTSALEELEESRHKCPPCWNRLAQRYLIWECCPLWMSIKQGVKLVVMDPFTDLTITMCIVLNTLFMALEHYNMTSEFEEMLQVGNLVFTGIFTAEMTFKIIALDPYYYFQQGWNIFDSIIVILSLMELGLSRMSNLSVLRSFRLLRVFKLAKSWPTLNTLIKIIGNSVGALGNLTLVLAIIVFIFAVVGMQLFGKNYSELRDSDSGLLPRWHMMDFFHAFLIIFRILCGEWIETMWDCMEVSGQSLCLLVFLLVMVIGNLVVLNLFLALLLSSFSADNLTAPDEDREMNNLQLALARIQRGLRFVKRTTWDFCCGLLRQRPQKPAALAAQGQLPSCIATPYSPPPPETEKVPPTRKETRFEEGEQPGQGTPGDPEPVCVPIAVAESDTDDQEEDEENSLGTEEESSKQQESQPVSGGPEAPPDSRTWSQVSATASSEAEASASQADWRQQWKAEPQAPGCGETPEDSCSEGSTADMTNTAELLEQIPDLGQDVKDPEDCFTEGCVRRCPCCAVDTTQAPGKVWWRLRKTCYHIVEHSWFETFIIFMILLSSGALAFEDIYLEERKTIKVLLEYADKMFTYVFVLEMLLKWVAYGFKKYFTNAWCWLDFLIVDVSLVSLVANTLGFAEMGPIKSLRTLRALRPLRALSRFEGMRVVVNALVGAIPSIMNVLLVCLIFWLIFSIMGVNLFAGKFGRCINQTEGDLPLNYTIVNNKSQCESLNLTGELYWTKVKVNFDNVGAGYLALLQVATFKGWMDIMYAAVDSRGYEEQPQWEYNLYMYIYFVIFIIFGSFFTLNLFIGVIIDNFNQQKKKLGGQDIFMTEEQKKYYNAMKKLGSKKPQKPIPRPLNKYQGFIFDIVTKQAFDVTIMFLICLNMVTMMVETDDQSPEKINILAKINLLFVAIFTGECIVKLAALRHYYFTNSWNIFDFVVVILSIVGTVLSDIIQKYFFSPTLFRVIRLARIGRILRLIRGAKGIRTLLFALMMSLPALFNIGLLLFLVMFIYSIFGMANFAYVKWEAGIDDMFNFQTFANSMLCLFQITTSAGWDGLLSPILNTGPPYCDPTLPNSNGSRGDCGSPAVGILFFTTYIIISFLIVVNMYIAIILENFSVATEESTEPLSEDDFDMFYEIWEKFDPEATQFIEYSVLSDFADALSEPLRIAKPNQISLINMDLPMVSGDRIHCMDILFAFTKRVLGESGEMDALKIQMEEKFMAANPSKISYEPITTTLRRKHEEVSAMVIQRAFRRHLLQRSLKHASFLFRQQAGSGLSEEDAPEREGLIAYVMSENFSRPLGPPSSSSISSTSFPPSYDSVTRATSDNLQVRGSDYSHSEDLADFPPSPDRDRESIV
Chain of wild-type human cardiac sodium channel, hNaV 1.5 (Peak INa) (Q14524 whole entry): as above

`COc1cc(OC(F)(F)F)ccc1-c1ccc2c(c1)CN(Cc1ncccn1)C(=O)O2` [Example 1, 6-(2-methoxy-4-(trifluoromethoxy)phenyl)-3-(pyrimidin-2-ylmethyl)-3,4-dihydro-2H-benzo[e][1,3]oxazin-2-one]: the inhibition at 3 µM in assay [1] (setting [3]) amounted to 9.6%; in assay [1] (setting [4]), 26.7%.
In the case of `O=C1Oc2ccc(-c3ccc(C(F)(F)F)cc3)cc2CN1Cc1ccncc1` [Example 2, 3-(pyridin-4-ylmethyl)-6-(4-(trifluoromethyl)phenyl)-3,4-dihydro-2H-benzo[e][1,3]oxazin-2-one], the inhibition at 3 µM in assay [1] (setting [3]) stood at 16.2%; in assay [1] (setting [4]), 18.5%. Also, the inhibition at 1 µM in assay [2] worked out at 41.5%.
Take `Cc1cc(-c2ccc3c(c2)CN(Cc2ncccn2)C(=O)O3)ccc1OC(F)(F)F` [Example 5, 6-(3-methyl-4-(trifluoromethoxy)phenyl)-3-(pyrimidin-2-ylmethyl)-3,4-dihydro-2H-benzo[e][1,3]oxazin-2-one]: the inhibition at 3 µM in assay [1] (setting [3]) was < 5%; in assay [1] (setting [4]), 10.1%. For the same compound, the inhibition at 1 µM in assay [2] worked out at 37.3%.
Consider `O=C1Oc2ccc(-c3ccc(Cl)c(F)c3)cc2CN1Cc1ncccn1` [Example 6, 6-(4-chloro-3-fluorophenyl)-3-(pyrimidin-2-ylmethyl)-3,4-dihydro-2H-benzo[e][1,3]oxazin-2-one], for which the inhibition at 3 µM is < 5% in assay [1] (setting [3]) and 19.9% in assay [1] (setting [4]). Moreover, the inhibition at 1 µM in assay [2] is 43.3%.
Taken in the same sequence, the figures for `O=C1Oc2ccc(-c3ccc(OC(F)(F)F)cc3F)cc2CN1Cc1ncccn1` [Example 7, 6-(2-fluoro-4-(trifluoromethoxy)phenyl)-3-(pyrimidin-2-ylmethyl)-3,4-dihydro-2H-benzo[e][1,3]oxazin-2-one] were < 5%, 14.9% and 42.3%.
On to `Cc1cc(OC(F)(F)F)ccc1-c1ccc2c(c1)CN(Cc1ncccn1)C(=O)O2` [Example 8, 6-(2-methyl-4-(trifluoromethoxy)phenyl)-3-(pyrimidin-2-ylmethyl)-3,4-dihydro-2H-benzo[e][1,3]oxazin-2-one], for which the inhibition at 3 µM is < 5% in assay [1] (setting [3]) and 12.5% in assay [1] (setting [4]). The inhibition at 1 µM in assay [2] was determined as 52.7%.
For the compound `COc1cc(OC(F)(F)F)ccc1-c1ccc2c(c1)CN(Cc1ncccn1)C(=O)O2` [Example 9, 6-(2-methoxy-4-(trifluoromethoxy)phenyl)-3-(pyrimidin-2-ylmethyl)-3,4-dihydro-2H-benzo[e][1,3]oxazin-2-one], in assay [1] (% inhibition, tonic block of peak INa at 3 uM, 0.1 Hz, holding -100 mV), the “Nav1.5 Peak TB 3 uM” value is given as 18.9%. Also, the “Nav1.5 Peak UDB 3 Hz 3 uM” value in assay [1] (% inhibition, use-dependent block of peak INa at 3 uM, 3 Hz, pulse 50) was <5%. Moreover, the “Nav1.5 Late INa 1 uM” value in assay [2] (% inhibition (percent block of late INa) at 1 uM) was determined as 45.0%.
For `O=C1Oc2ccc(-c3ccc(OC(F)(F)F)c(F)c3)cc2CN1Cc1ncccn1` [Example 10, 6-(3-fluoro-4-(trifluoromethoxy)phenyl)-3-(pyrimidin-2-ylmethyl)-3,4-dihydro-2H-benzo[e][1,3]oxazin-2-one], the inhibition at 3 µM turned out to be 10.8% in assay [1] (setting [3]) and 14.2% in assay [1] (setting [4]). The inhibition at 1 µM in assay [2] came out at 57.2%.
As to `CC1c2cc(-c3ccc(Cl)c(F)c3)ccc2OC(=O)N1Cc1ncccn1` (centres unmarked) [Example 11, 6-(4-chloro-3-fluorophenyl)-4-methyl-3-(pyrimidin-2-ylmethyl)-3,4-dihydro-2H-benzo[e][1,3]oxazin-2-one], the figures for the inhibition at 3 µM in assay [1] (setting [3]) and in assay [1] (setting [4]) were 5.6% and 19.4%, respectively. For the same compound, the inhibition at 1 µM in assay [2] is 32.5%.
Taken in the same sequence, the figures for `Cc1cnc(CN2Cc3cc(-c4ccc(OC(F)(F)F)cc4)ccc3OC2=O)nc1` [Example 12, 3-((5-methylpyrimidin-2-yl)methyl)-6-(4-(trifluoromethoxy)phenyl)-3,4-dihydro-2H-benzo[e][1,3]oxazin-2-one] were < 5%, 16.6% and 50.5%.
